Test system: HSV-2 (strain HG-52)
Test: Inhibition of HSV-2 replication in BHK-21/C13 cell culture (viral titer by neutral red colorimetric assay)
Type: cell-based
Settings: Human alphaherpesvirus 2, BHK21 (C13); agent alone; HSV-2 strain HG-52 in BHK-21/C13 cells, 29 h incubation; read-out: IC50 (concentration causing 50% inhibition of virus replication)
Procedure: BHK-21/C13 cells (ATCC CCL 10) are incubated for two days in 150 cm^2 T-flasks (1.5×10^6 cells/flask) with alpha-MEM medium (Gibco Canada Inc., Burlington, Ontario, Canada) supplemented with 8% (v/v) fetal bovine serum (FBS, Gibco Canada Inc.). The cells are trypsinized and then transferred to fresh media in a 24 well plate to give 2.5×10^5 cells in 750 μL of media per well. The cells are incubated at 37° C. for a period of 6 hours to allow them to adhere to the plate. Thereafter, the cells are washed once with 500 μL of alpha-MEM supplemented with 0.5% (v/v) FBS and then incubated with 750 μL of the same media (low serum) for 3 days. After this period of serum starvation, the low serum medium is removed and the cells are incubated in 500 μL of BBMT for 2 to 3 hours. [BBMT medium is described by P. Brazeau et al., Proc. Natl. Acad. Sci. USA, 79, 7909 (1982).] Thereafter, the cells are infected with HSV-2 (multiplicity of infection=0.02 PFU/cell) in 100 μL of BBMT medium. […]
On completion of the above 2 hour incubation of the BHK-21/C13 cells, the media is replaced with alpha-MEM medium supplemented with 3% (v/v) FBS. The cells are now ready to be infected with the various sample dilutions of virus. […]

**Q.** For `Nc1nc2c(ncn2COCCO)c(=O)[nH]1` [acyclovir, 9-[(2-hydroxyethoxy)methyl]guanine], which IC50 is on record?
**A.** 4 µM

— patent publication US5380727A, “Synergistic combination for treating herpes infections” (Bio-Mega, Inc., priority 1990, dated 1995)
